Reference: ChEMBL document CHEMBL5543155, “Design, Synthesis, and Biological Evaluation of β-Trifluoroethoxydimethyl Selenides as Potent Antiosteoporosis Agents” (J Med Chem, 2024)
Activity calls are given as the source filed them. The rule behind the calls is not given here.

How the values were obtained:
MC3T3-E1 [1] = assay: Induction of osteoblast differentiation in mouse MC3T3-E1 cells assessed as bone formation by measuring increase in BMP2 protein expression measured after 7 days by Western blot analysis; assay type: functional, cell-based; conditions: dose 2.5-10 µM, time 7.0 day
[2] = molecular target: T1, NF-kappa-B inhibitor alpha (Mus musculus) (UniProt Q9Z1E3); assay: Inhibition of RANKL-induced IkappaBalpha phosphorylation in C57BL/6 mouse BMMC cells at 5 uM pretreated for 6 hrs followed by RANKL stimulation and measured upto 60 mins by Western blot analysis; assay type: cell-based; conditions: time <= 7.0 hrs
T1 sequence (whole entry): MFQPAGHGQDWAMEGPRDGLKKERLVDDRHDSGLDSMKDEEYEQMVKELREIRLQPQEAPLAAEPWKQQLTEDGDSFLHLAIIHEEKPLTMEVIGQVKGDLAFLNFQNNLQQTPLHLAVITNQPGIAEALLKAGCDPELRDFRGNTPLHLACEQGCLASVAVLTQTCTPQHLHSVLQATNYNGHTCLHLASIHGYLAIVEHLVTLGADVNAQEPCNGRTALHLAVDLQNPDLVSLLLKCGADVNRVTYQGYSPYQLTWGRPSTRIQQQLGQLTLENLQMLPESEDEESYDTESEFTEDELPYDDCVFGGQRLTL

BMMC [3] = assay: Anti-osteoclastogenesis activity in M-CSF/RANKL-induced C57BL/6 mouse BMMC cells assessed as downregulation of TRAP gene expression incubated for 5 days by qRT-PCR analysis; assay type: functional, cell-based; conditions: dose 0-10 µM, time 5.0 day
BMMC [4] = assay: Anti-osteoclastogenesis activity in M-CSF/RANKL-induced C57BL/6 mouse BMMC cells assessed as downregulation of C-Fos gene expression incubated for 5 days by qRT-PCR analysis; assay type: functional, cell-based; conditions: dose 0-10 µM, time 5.0 day
BMMC [5] = assay: Effect on total p38 protein expression in RANKL-induced C57BL/6 mouse BMMC cells at 5 uM pretreated for 6 hrs followed by RANKL stimulation and measured upto 60 mins by Western blot analysis; assay type: functional, cell-based; conditions: time <= 7.0 hrs
Mus musculus [6] = assay: Anti-osteoporosis activity in ovariectomized C57BL/6 mouse assessed as reduction in bone loss by measuring increase in trabecular number at 10 mg/kg, ip administered every other day for 8 weeks by micro-CT analysis; assay type: functional, organism-based
BMMC [7] = assay: Effect on total JNK protein expression in RANKL-induced C57BL/6 mouse BMMC cells at 5 uM pretreated for 6 hrs followed by RANKL stimulation and measured upto 60 mins by Western blot analysis; assay type: functional, cell-based; conditions: time <= 7.0 hrs
BMMC [8] = assay: Anti-osteoclastogenesis activity in M-CSF/RANKL-induced C57BL/6 mouse BMMC cells assessed as downregulation of NFATc1 gene expression incubated for 5 days by qRT-PCR analysis; assay type: functional, cell-based; conditions: dose 0-10 µM, time 5.0 day
BMMC [9] = assay: Effect on total ERK protein expression in RANKL-induced C57BL/6 mouse BMMC cells at 5 uM pretreated for 6 hrs followed by RANKL stimulation and measured upto 60 mins by Western blot analysis; assay type: functional, cell-based; conditions: time <= 7.0 hrs
MC3T3-E1 [10] = assay: Induction of osteoblast differentiation in mouse MC3T3-E1 cells assessed as bone formation by measuring increase in Runx2 protein expression measured after 7 days by Western blot analysis; assay type: functional, cell-based; conditions: dose 2.5-10 µM, time 7.0 day
[11] = Toxicity in OVX osteoporotic C57BL/6 mouse assessed as abnormal behaviors at 10 mg/kg, ip administered every other day for 8 weeks; assay type: organism-based; conditions: in vivo, 1344 h
BMMC [12] = assay: Anti-osteoclastogenesis activity in M-CSF/RANKL-induced C57BL/6 mouse BMMC cells assessed as reduction in F-actin ring formation incubated for 7 days with media replacement for every other day by TRITC phalloidin/DAPI-staining based fluorescence microscopic analysis; assay type: functional, cell-based; conditions: dose 0-10 µM, time 7.0 day
[13] = molecular target: T1, NF-kappa-B inhibitor alpha (Mus musculus); assay: Inhibition of RANKL-induced IkappaBalpha degradation in C57BL/6 mouse BMMC cells at 5 uM pretreated for 6 hrs followed by RANKL stimulation and measured upto 60 mins by Western blot analysis; assay type: cell-based; conditions: time <= 7.0 hrs
BMMC [14] = assay: Anti-osteoclastogenesis activity in M-CSF/RANKL-induced C57BL/6 mouse BMMC cells assessed as downregulation of cathepsin K gene expression incubated for 5 days by qRT-PCR analysis; assay type: functional, cell-based; conditions: dose 0-10 µM, time 5.0 day
BMMC [15] = assay: Effect on total p65 protein expression in RANKL-induced C57BL/6 mouse BMMC cells at 5 uM pretreated for 6 hrs followed by RANKL stimulation and measured upto 60 mins by Western blot analysis; assay type: functional, cell-based; conditions: time <= 7.0 hrs
Mus musculus [16] = assay: Anti-osteoporosis activity in ovariectomized C57BL/6 mouse assessed as reduction in bone loss by measuring decrease in TRAP-positive cells around trabecula at 10 mg/kg, ip administered every other day for 8 weeks by TRAP staining based analysis; assay type: functional, organism-based
[17] = molecular target: MAP kinase p38 (Mus musculus) (UniProt P47811+O08911+Q9WUI1+Q9Z1B7); assay: Inhibition of p38 phosphorylation in RANKL-induced C57BL/6 mouse BMMC cells at 5 uM pretreated for 6 hrs followed by RANKL stimulation and measured upto 60 mins by Western blot analysis; assay type: cell-based; conditions: time <= 7.0 hrs
[18] = Toxicity in OVX osteoporotic C57BL/6 mouse assessed as effect on size and surface gloss of kidney at 10 mg/kg, ip administered every other day for 8 weeks by H and E staining based analysis; assay type: organism-based; conditions: in vivo, 1344 h
BMMC [19] = assay: Anti-osteoclastogenesis activity in M-CSF/RANKL-induced C57BL/6 mouse BMMC cells assessed as prevention of osteoclasts precursor differentiation at 5 uM measured on day 1 to 3 by TRAP-staining based light microscopic analysis; assay type: functional, cell-based; conditions: time 1-3 day
[20] = Toxicity in OVX osteoporotic C57BL/6 mouse assessed as effect on size and surface gloss of liver at 10 mg/kg, ip administered every other day for 8 weeks by H and E staining based analysis; assay type: organism-based; conditions: in vivo, 1344 h
MC3T3-E1 [21] = assay: Induction of osteoblast differentiation in mouse MC3T3-E1 cells assessed as bone formation by measuring increase in Smad protein expression measured after 7 days by Western blot analysis; assay type: functional, cell-based; conditions: dose 2.5-10 µM, time 7.0 day
BMMC [22] = assay: Cytotoxicity against C57BL/6 mouse BMMC cells assessed as reduction in cell viability at 30 uM incubated for 48 hrs by MTT assay; assay type: toxicity, cell-based
BMMC [23] = assay: Anti-osteoclastogenesis activity in M-CSF/RANKL-induced C57BL/6 mouse BMMC cells assessed as downregulation of MMP-9 gene expression incubated for 5 days by qRT-PCR analysis; assay type: functional, cell-based; conditions: dose 0-10 µM, time 5.0 day
BMMC [24] = assay: Anti-osteoclastogenesis activity in M-CSF/RANKL-induced C57BL/6 mouse BMMC cells assessed as reduction in number of TRAP-positive osteoclasts at 0 to 10 uM incubated for 6 days with media replacement for every 2 days by TRAP-staining based light microscopic analysis; assay type: functional, cell-based; conditions: dose 0-10 µM, time 6.0 day
BMMC [25] = assay: Anti-osteoclastogenesis activity in M-CSF/RANKL-induced C57BL/6 mouse BMMC cells cultured in hydroxyapatite-coated plates assessed as reduction in bone resorbed area per osteoclast incubated for 4 days by microscopic analysis; assay type: functional, cell-based; conditions: dose 2.5-10 µM, time 4.0 day
BMMC [26] = assay: Anti-osteoclastogenesis activity in M-CSF/RANKL-induced C57BL/6 mouse BMMC cells assessed as reduction in size of TRAP-positive osteoclasts at 0 to 10 uM incubated for 6 days with media replacement for every 2 days by TRAP-staining based light microscopic analysis; assay type: functional, cell-based; conditions: dose 0-10 µM, time 6.0 day
[27] = Toxicity in OVX osteoporotic C57BL/6 mouse assessed as effect on size and surface gloss of spleen at 10 mg/kg, ip administered every other day for 8 weeks by H and E staining based analysis; assay type: organism-based; conditions: in vivo, 1344 h

inhibition [2]: Active
inhibition [13]: Active
inhibition [17]: Active
SMILES: CC(C)(OCC(F)(F)F)C([Se]c1ccccc1)C(=O)Nc1ccncc1 (configuration not stated)
Activity (MC3T3-E1 [1]): Dose-Dependent Effect
Activity (BMMC [3]): Dose-Dependent Effect
Activity (BMMC [4]): Dose-Dependent Effect
Activity (BMMC [5]): inactive
Activity (Mus musculus [6]): Active
Activity (BMMC [7]): inactive
Activity (BMMC [8]): Dose-Dependent Effect
Activity (BMMC [9]): inactive
Activity (MC3T3-E1 [10]): Dose-Dependent Effect
Activity [11]: Non-Toxic
Activity (BMMC [12]): Dose-Dependent Effect
Activity (BMMC [14]): Dose-Dependent Effect
Activity (BMMC [15]): inactive
Activity (Mus musculus [16]): Active
Activity [18]: Non-Toxic
Activity (BMMC [19]): Active
Activity [20]: Non-Toxic
Activity (MC3T3-E1 [21]): Dose-Dependent Effect
Activity (BMMC [22]): Non-Toxic
Activity (BMMC [23]): Dose-Dependent Effect
Activity (BMMC [24]): Active
Activity (BMMC [25]): Dose-Dependent Effect
Activity (BMMC [26]): Active
Activity [27]: Non-Toxic
